pIC50: −log10 of the molar value.

The target of the assay is mitochondrial RNA-polymerase (POLRMT) (Mus musculus, UniProt Q8BKF1). Briefly: Homogeneous TR-FRET assay for mitochondrial transcription activity. To be noted: homogeneous TR-FRET assay according to Example 4; activity class. The assay is classed as biochemical. An excerpt:
The TR-FRET assay was basically conducted as described in WO2016/193,231A1, especially as described in example 1 (hereby incorporated by reference). With respect to the background of the mitochondrial transcription it is referred to Falkenberg et al. (2002) and Posse et al. (Posse et al., 2015). The method monitors the activity of mitochondrial RNA-polymerase via detection of the formation of its product, a 407 bp long RNA sequence. Detection of the product is facilitated by hybridization of two DNA-oligonucleotide probes to specific and adjacent sequences within the RNA product sequence. Upon annealing of the probes, two fluorophores that are coupled directly to an acceptor nucleotide probe (ATT0647, 5′) or introduced via a coupled streptavidin interacting with a biotinylated donor nucleotide probe on the other side (Europium cryptate, 3′) are brought into sufficient proximity to serve as a fluorescence-donor-acceptor pair as generally described in Walters and Namchuk (2003). Thus, a FRET signal at 665 nm is generated upon excitation at 340 nm.
Briefly, the protocol described here was applied for screening and activity determination in a low-volume 384-well microtiter plate with non-binding surface. For high-throughput application in the 1536-well microtiter plate format, volumes of the reagent mixes were adjusted, maintaining the volumetric ratio. Proteins POLRMT (NM_172551.3), TFAM (NM_009360.4) and TFB2 M (NM_008249.4) were diluted from their stocks to working concentrations of 150 nM, 1.8 μM and 330 nM respectively, in a dilution buffer containing 100 mM Tris-HCl pH 8.0, 200 mM NaCl, 10% (v/v) glycerole, 2 mM glutathione (GSH), 0.5 mM EDTA and 0.1 mg/mL BSA. Protein dilutions and template DNA, comprising a pUC18 plasmid encoding the mitochondrial light strand promoter, restriction linearized proximal to the promoter 3′-end (pUC-LSP), were mixed at the twofold final assay-concentration in a reaction buffer, containing 10 mM Tris-HCl pH 7.5, 10 mM MgCl2, 40 mM NaCl, 2 mM GSH, 0.01% (w/v) Tween-20 and 0.1 mg/mL BSA.
5 μL of this mix were dispensed, depending on the chosen microtiter plate format, using multi-channel pipettes or a Multidrop® dispenser (Thermo Fisher Scientific, Waltham Mass.) into the wells of a microtiter plate and incubated at room temperature (RT) for 10 min. Chemical compounds under scrutiny in the assay were applied using contact-free acoustic droplet-dispensing (Echo520® Labcyte Inc., Sunnyvale Calif.) from 10 mM compound stocks in 100% DMSO, to a final concentration of 10 μM or in serial dilution series of the required concentration range. Equal amounts of DMSO without any compound were added to positive control samples, followed by an incubation step at RT for 10 min.
The enzymatic reaction was started by the addition of 5 μL of a mix of […] in reaction buffer to a final concentration of 500 μM each. No nucleotide mix was added to negative control samples. The content of the wells was mixed using a VarioTeleshaker™ (Thermo Fisher Scientific, Waltham Mass.) at 1,500 rpm for 45 sec after which the microtiter plate was centrifuged at 500×g for 1 min. The samples were incubated for 2 h at RT with humidity control to avoid evaporation. The detection reagents were prepared in a buffer that was composed, such that the enzymatic reaction was terminated due to chelating of Mg-ions and increased ionic strength, containing 50 mM Tris-HCl pH 7.5, 700 mM NaCl, 20 mM EDTA, and 0.01% (w/v) Tween-20. Importantly Eu-cryptate-coupled streptavidin had to be pre-incubated with a 100-fold molar excess of a random sequence oligonucleotide for 10 min at RT in the dark to block unspecific binding of single stranded RNA to the protein. Subsequently, the blocked streptavidin(—Eu) was mixed with the DNA-probes on ice and kept away from light until use. […]

mitochondrial RNA-polymerase (POLRMT), sequence (Q8BKF1 42-1207): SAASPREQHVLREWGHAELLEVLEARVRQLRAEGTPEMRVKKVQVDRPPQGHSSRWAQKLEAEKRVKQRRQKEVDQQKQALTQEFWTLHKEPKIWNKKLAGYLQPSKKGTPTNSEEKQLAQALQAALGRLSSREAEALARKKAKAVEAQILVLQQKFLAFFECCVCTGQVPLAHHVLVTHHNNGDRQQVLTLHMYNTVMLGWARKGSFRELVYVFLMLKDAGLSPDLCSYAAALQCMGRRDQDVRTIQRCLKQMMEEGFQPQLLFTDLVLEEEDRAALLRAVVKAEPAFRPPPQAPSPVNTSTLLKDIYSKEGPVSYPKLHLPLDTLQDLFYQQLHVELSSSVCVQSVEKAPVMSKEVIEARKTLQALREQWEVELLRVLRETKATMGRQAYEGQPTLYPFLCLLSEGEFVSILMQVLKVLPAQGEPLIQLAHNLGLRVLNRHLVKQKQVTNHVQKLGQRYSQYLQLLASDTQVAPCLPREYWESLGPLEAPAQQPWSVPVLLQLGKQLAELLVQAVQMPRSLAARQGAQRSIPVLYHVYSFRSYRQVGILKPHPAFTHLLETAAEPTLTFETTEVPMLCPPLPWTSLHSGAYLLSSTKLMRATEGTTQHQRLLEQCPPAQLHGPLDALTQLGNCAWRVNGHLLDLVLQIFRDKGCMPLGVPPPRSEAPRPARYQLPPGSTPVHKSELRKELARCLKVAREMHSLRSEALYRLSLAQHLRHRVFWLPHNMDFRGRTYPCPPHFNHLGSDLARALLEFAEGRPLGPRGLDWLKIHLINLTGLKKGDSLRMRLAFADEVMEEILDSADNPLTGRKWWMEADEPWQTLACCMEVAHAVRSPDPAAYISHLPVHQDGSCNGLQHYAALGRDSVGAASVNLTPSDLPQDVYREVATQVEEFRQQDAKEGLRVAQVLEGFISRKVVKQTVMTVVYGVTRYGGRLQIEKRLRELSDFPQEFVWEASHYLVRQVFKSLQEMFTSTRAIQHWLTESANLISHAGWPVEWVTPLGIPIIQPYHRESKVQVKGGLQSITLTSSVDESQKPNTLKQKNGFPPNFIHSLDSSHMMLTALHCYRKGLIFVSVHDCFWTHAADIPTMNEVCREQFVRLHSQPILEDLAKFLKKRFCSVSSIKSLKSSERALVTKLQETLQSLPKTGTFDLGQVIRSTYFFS

For `Cc1ccccc1-c1cc(=O)oc2cc(OC(C)C(=O)N3CCCC(C)(C(=O)O)C3)ccc12` (centres unmarked) [Compound 43, 3-methyl-1-[2-[4-(o-tolyl)-2-oxo-chromen-7-yl]oxypropanoyl]piperidine-3-carboxylic acid], the pIC50 was > 7.70. The result for `CC(Oc1ccc2c(-c3ccccc3Cl)cc(=O)oc2c1)C(=O)Nc1ccccn1` (centres unmarked) [Compound 31, 2-[4-(2-chlorophenyl)-2-oxo-chromen-7-yl]oxy-N-(2-pyridyl)propanamide] reads > 7.70.

Consider `COC(=O)c1ccnc(NC(=O)[C@@H](C)Oc2ccc3c(-c4ccc(F)cc4Cl)cc(=O)oc3c2)c1` [Compound 146, methyl 2-[[(2R)-2-[4-(2-chloro-4-fluoro-phenyl)-2-oxo-chromen-7-yl]oxypropanoyl]amino]pyridine-4-carboxylate], for which the pIC50 is 6.00 to 7.00.

As to `Cc1cc(F)ccc1-c1cc(=O)oc2cc(O[C@H](C)C(=O)N3CCC[C@H](C(=O)O)C3)ccc12` [Compound 158, (3S)-1-[(2R)-2-[4-(4-fluoro-2-methyl-phenyl)-2-oxo-chromen-7-yl]oxypropanoyl]piperidine-3-carboxylic acid], the pIC50 is > 7.70. Take `CC(Oc1ccc2c(-c3ccccc3Cl)cc(=O)oc2c1)C(=O)N1CCC[C@@H](C(=O)N(C)C)C1` (stereo partly drawn) [Compound 67, (3R)-1-[2-[4-(2-chlorophenyl)-2-oxo-chromen-7-yl]oxypropanoyl]-N,N-dimethyl-piperidine-3-carboxamide]: the pIC50 is 7.00 to 7.70.

As to `C[C@@H](Oc1ccc2c(-c3ccccc3Cl)cc(=O)oc2c1)C(=O)N1CC[C@H](C(=O)O)C1` [Compound 29, (3S)-1-[2-[4-(2-chlorophenyl)-2-oxo-chromen-7-yl]oxypropanoyl]pyrrolidine-3-carboxylic acid], the negative logarithm of the IC50 (pIC50) is > 7.70. `CC(Oc1ccc2c(-c3ccccc3Cl)cc(=O)oc2c1)C(=O)N1CCC(S(N)(=O)=O)C1` (centres unmarked) [Compound 77, 1-[2-[4-(2-chlorophenyl)-2-oxo-chromen-7-yl]oxypropanoyl]pyrrolidine-3-sulfonamide] showed a pIC50 of 7.00 to 7.70. As to `C[C@@H](Oc1ccc2c(-c3ccc(F)cc3Cl)cc(=O)oc2c1)C(=O)N1CCN[C@H](C(=O)O)C1` [Compound 138, (2S)-4-[(2R)-2-[4-(2-chloro-4-fluoro-phenyl)-2-oxo-chromen-7-yl]oxypropanoyl]piperazine-2-carboxylic acid], the pIC50 was 7.00 to 7.70. In the case of `CC(Oc1ccc2c(-c3cccc(F)c3Cl)cc(=O)oc2c1)C(=O)N1CCC[C@H](C(=O)O)C1` (stereo partly drawn) [Compound 50, (3S)-1-[2-[4-(2-chloro-3-fluoro-phenyl)-2-oxo-chromen-7-yl]oxypropanoyl]piperidine-3-carboxylic acid], the pIC50 was > 7.70. As to `CNS(=O)(=O)C1CCCN(C(=O)C(C)Oc2ccc3c(-c4ccccc4Cl)cc(=O)oc3c2)C1` (centres unmarked) [Compound 20, 1-[2-[4-(2-chlorophenyl)-2-oxo-chromen-7-yl]oxypropanoyl]-N-methyl-piperidine-3-sulfonamide], the pIC50 was > 7.70.

`Cc1ccccc1-c1cc(=O)oc2cc(O[C@H](C)C(=O)N(C)C)ccc12` [Compound 44, (2R)-N,N-dimethyl-2-[4-(o-tolyl)-2-oxo-chromen-7-yl]oxy-propanamide]: the pIC50 was > 7.70. Consider `CC(Oc1ccc2c(-c3ccccc3Cl)cc(=O)oc2c1)C(=O)N1CCCC1` (centres unmarked) [Compound 13, 4-(2-chlorophenyl)-7-(1-methyl-2-oxo-2-pyrrolidin-1-yl-ethoxy)chromen-2-one], for which the pIC50 is > 7.70.

For `CC(Oc1ccc2c(-c3ccccc3Cl)cc(=O)oc2c1)C(=O)O` (centres unmarked) [Compound 96, 2-[4-(2-chlorophenyl)-2-oxo-chromen-7-yl]oxypropanoic acid], the pIC50 was 6.00 to 7.00. For the molecule `CC(Oc1ccc2c(-c3ccccc3Cl)cc(=O)oc2c1)C(=O)N1CCC[C@@H](C(=O)O)C1` (stereo partly drawn) [Compound 46, (3R)-1-[2-[4-(2-chlorophenyl)-2-oxo-chromen-7-yl]oxypropanoyl]piperidine-3-carboxylic acid], the pIC50 is > 7.70.

`CC(Oc1ccc2c(-c3cccc(F)c3Cl)cc(=O)oc2c1)C(=O)NC1CC1` (centres unmarked) [Compound 61, 2-[4-(2-chloro-3-fluoro-phenyl)-2-oxo-chromen-7-yl]oxy-N-cyclopropyl-propanamide] had a pIC50 of 7.00 to 7.70.

In the case of `CCOC(=O)C(C)Oc1ccc2c(-c3ccccc3Cl)cc(=O)oc2c1` (centres unmarked) [Compound 40, ethyl 2-[4-(2-chlorophenyl)-2-oxo-chromen-7-yl]oxypropanoate], the pIC50 was > 7.70.

On to `COC(=O)C1CCCN(C(=O)C(C)Oc2ccc3c(-c4ccccc4Cl)cc(=O)oc3c2)C1` (centres unmarked) [Compound 7, methyl 1-[2-[4-(2-chlorophenyl)-2-oxo-chromen-7-yl]oxypropanoyl]piperidine-3-carboxylate], for which the pIC50 was > 7.70. As for `C[C@@H](Oc1ccc2c(-c3ccc(F)cc3Cl)cc(=O)oc2c1)C(=O)N1CCC(C(=O)O)CC1` [Compound 131, 1-[(2R)-2-[4-(2-chloro-4-fluoro-phenyl)-2-oxo-chromen-7-yl]oxypropanoyl]piperidine-4-carboxylic acid], the pIC50 was 7.00 to 7.70.

For the molecule `Cc1ccccc1-c1cc(=O)oc2cc(OC(C)C(=O)N3CCC[C@@H](C(=O)O)C3)ccc12` (stereo partly drawn) [Compound 53, (3R)-1-[2-[4-(o-tolyl)-2-oxo-chromen-7-yl]oxypropanoyl]piperidine-3-carboxylic acid], the pIC50 is > 7.70. Molecule `COC(=O)[C@H]1CCN(C(=O)[C@@H](C)Oc2ccc3c(-c4ccc(F)cc4Cl)cc(=O)oc3c2)C1` [Compound 157, methyl (3S)-1-[(2R)-2-[4-(2-chloro-4-fluoro-phenyl)-2-oxo-chromen-7-yl]oxypropanoyl]pyrrolidine-3-carboxylate] gave a pIC50 of 7.00 to 7.70. Regarding `CCOC(=O)C1(C)CCCN(C(=O)C(C)Oc2ccc3c(-c4ccc(F)cc4Cl)cc(=O)oc3c2)C1` (centres unmarked) [Compound 95, ethyl 1-[2-[4-(2-chloro-4-fluoro-phenyl)-2-oxo-chromen-7-yl]oxypropanoyl]-3-methyl-piperidine-3-carboxylate], the pIC50 was 6.00 to 7.00.

`C[C@@H](Oc1ccc2c(-c3ccc(F)cc3Cl)cc(=O)oc2c1)C(=O)N1CCN[C@@H](C(=O)O)C1` [Compound 150, (2R)-4-[(2R)-2-[4-(2-chloro-4-fluoro-phenyl)-2-oxo-chromen-7-yl]oxypropanoyl]piperazine-2-carboxylic acid]: the pIC50 is 7.00 to 7.70. `C[C@@H](Oc1ccc2c(-c3ccc(F)cc3Cl)cc(=O)oc2c1)C(=O)Nc1ccc(C(=O)O)nc1` [Compound 154, 5-[[(2R)-2-[4-(2-chloro-4-fluoro-phenyl)-2-oxo-chromen-7-yl]oxypropanoyl]amino]pyridine-2-carboxylic acid]: the pIC50 was > 7.70. The result for `C[C@@H](Oc1ccc2c(-c3ccccc3C#N)cc(=O)oc2c1)C(=O)N1CCC[C@H](C(=O)O)C1` [Compound 162, (3S)-1-[(2R)-2-[4-(2-cyanophenyl)-2-oxo-chromen-7-yl]oxypropanoyl]piperidine-3-carboxylic acid] reads 7.00 to 7.70. The molecule `COC(=O)C1CN(C(=O)[C@@H](C)Oc2ccc3c(-c4ccc(F)cc4Cl)cc(=O)oc3c2)CCN1C` (mixture of isomers) [Compound 137, methyl 1-methyl-4-[rac-(2R)-2-[4-(2-chloro-4-fluoro-phenyl)-2-oxo-chromen-7-yl]oxypropanoyl]piperazine-2-carboxylate] gave a pIC50 of 6.00 to 7.00. `CC(Oc1ccc2c(-c3ccccc3Cl)cc(=O)oc2n1)C(=O)N1CCC[C@H](C(=O)OC(C)(C)C)C1` (mixture of isomers) [Compound 171, tert-butyl rac-(3S)-1-[2-[4-(2-chlorophenyl)-2-oxo-pyrano[2,3-b]pyridin-7-yl]oxypropanoyl]piperidine-3-carboxylate] gave a pIC50 of 6.00 to 7.00.

(Values after patent publication US11111238B2, “Coumarin derivatives, processes for their preparation and uses thereof for the treatment of cancer” (Lead Discovery Center GmbH, priority 2017, dated 2021).)
